These results are taken from publication PMC1888807 (2007).

For experiment [1], the system named is H24 (DNA, G4) TTAGGGTTAGGGTTAGGGTTAGGG
As to the kind of experiment: CD melting at 295 nm. The note with it: 150 mM Na+; 10 mM Tris-HCl pH 7.5; BMVC:H24 molar ratio 5.

Experiment [2] relates to H78 (DNA, G4) TTAGGGTTAGGGTTAGGGTTAGGGTTAGGGTTAGGGTTAGGGTTAGGGTTAGGGTTAGGGTTAGGGTTAGGGTTAGGG
Briefly: melting. The note with it: 150 mM Na+; 10 mM Tris-HCl pH 7.5; BMVC:H78 molar ratio 10; ~51 to ~68 °C.

Turning to `C[n+]1ccc(C=Cc2ccc3[nH]c4ccc(C=Cc5cc[n+](C)cc5)cc4c3c2)cc1`, the figures for the melting temperature increase in experiment [1] and in experiment [2] were 18 °C and ~ 17 °C, respectively.
